Measured values: paper PMC9011347, “Small-Molecule Inhibitors Targeting Lipolysis in Human Adipocytes” (Journal of the American Chemical Society, 2022)

What was measured:
Assay in all cases: Off-target lipid hydrolase assay, Expi293 lysates
Format in all cases: biochemical
PNPLA6 = molecular target: T1, PNPLA6 (Homo sapiens, UniProt Q8IY17); details: NG-497 100 µM, substrate LPC
T1 construct: made in house; host or cells: Expi293 cells, lysate
Protocol: (§1) Fig. S3: Investigation of off-target effects of NG-497 on structurally and functionally related lipid hydrolases. (a) […]
(§2) NG-497, inhibited PNPLA1/CGI-58-dependent ω-O-acylceramide formation. (b-h) Enzymes were overexpressed in Expi293 cells and cell lysates were used as source of enzymatic activity. Cell lysates were incubated with the indicated substrates 1-oleoyl phosphatidylcholine (LPC), di-oleoyl phosphatidic acid (PA), di-octanoyl phosphatidylglycerol (PG), or para-nitrophenylvalerate (pNPV). Experiments were performed in the presence or absence of NG-497 (100 µM) and the formation of reaction products was monitored. Cell lysates of LacZ-transfected cells were used to detect basal cellular activity. As positive controls, enzymes were inactivated with lipase inhibitors Orlistat (40 µM), R-BEL (10 µM), KLH-45 (20 nM), HSLi (10 µM), or PMSF (10µM).
(§3) Data were calculated relative to the basal activity detected in LacZ-transfected controls. […]
(§4) LPL activity was inhibited using an anti-LPL antibody. All data are presented as mean ± S.D. Statistical significance was determined via ANOVA followed by Bonferroni post hoc test ( ***, p < 0.001).
(§5) (1 picture or pasted object on this page, not shown here) […]
(§6) 2-mercaptoethanol, 4% sodium dodecyl sulfate, 20% glycerin, bromophenol blue) at 98°C for 10 min. For detection of protein expression, anti-Xpress (Thermo Fisher Scientific #R910-25), anti-mouse-HRP Trueblot (Rockland #18-8817-33), and anti-FLAG HRP (MiliporeSigma #A8592) antibodies were used.
(§7) Analysis of toxicity in HepG2 hepatocytes. For LDH-based viability assays, HepG2 cells were seeded in 96-well plates in DMEM (Gibco) containing 100 IU/ml penicillin, 100 IU/ml streptomycin (MilliporeSigma), and 3% heat-inactivated FCS. […]
(§8) Serum stability of ATGL inhibitors. Inhibitors were incubated in 200 µl human serum for 0 and 3 h at 37°C and extracted in 1 ml MTBE/methanol (3/1, v/v) containing acetic acid/butylated hydroxytoluene (500nM). The extraction mixture was shaken at 1,400 x rpm for 1 h at RT and centrifuged for 10 min at 13,000 x rpm for phase separation. 700 µl of the upper, organic phase were collected, dried under a stream of nitrogen, and lipids resolved in 200 µl methanol/isopropanol/H2O (6/3/1), for UPLC- […]
(§9) Chromatographic separation was modified after Knittelfelder et al.2 using an AQUITY UPLC system (Waters Corporation, Milford, USA) equipped with a ZORBAX Eclipse XDB-C18- column (3 × 30 mm, 1.8 µm; Agilent Technologies, Santa Clara, USA) starting a 15 min gradient with 80% solvent A (water/methanol, 1/1, v/v) and 20% solvent B (2-propanol). Both solvents contained ammonium acetate (10 mM), formic acid (0.1 vol%) and phosphoric acid (8 µM) and the column was kept at 50°C. […]

PNPLA7 = molecular target: T2, PNPLA7 (Homo sapiens, UniProt Q6ZV29); details: NG-497 100 µM, substrate LPC
T2 construct: made in house; host or cells: Expi293 cells, lysate
T2 sequence (Q6ZV29 whole entry): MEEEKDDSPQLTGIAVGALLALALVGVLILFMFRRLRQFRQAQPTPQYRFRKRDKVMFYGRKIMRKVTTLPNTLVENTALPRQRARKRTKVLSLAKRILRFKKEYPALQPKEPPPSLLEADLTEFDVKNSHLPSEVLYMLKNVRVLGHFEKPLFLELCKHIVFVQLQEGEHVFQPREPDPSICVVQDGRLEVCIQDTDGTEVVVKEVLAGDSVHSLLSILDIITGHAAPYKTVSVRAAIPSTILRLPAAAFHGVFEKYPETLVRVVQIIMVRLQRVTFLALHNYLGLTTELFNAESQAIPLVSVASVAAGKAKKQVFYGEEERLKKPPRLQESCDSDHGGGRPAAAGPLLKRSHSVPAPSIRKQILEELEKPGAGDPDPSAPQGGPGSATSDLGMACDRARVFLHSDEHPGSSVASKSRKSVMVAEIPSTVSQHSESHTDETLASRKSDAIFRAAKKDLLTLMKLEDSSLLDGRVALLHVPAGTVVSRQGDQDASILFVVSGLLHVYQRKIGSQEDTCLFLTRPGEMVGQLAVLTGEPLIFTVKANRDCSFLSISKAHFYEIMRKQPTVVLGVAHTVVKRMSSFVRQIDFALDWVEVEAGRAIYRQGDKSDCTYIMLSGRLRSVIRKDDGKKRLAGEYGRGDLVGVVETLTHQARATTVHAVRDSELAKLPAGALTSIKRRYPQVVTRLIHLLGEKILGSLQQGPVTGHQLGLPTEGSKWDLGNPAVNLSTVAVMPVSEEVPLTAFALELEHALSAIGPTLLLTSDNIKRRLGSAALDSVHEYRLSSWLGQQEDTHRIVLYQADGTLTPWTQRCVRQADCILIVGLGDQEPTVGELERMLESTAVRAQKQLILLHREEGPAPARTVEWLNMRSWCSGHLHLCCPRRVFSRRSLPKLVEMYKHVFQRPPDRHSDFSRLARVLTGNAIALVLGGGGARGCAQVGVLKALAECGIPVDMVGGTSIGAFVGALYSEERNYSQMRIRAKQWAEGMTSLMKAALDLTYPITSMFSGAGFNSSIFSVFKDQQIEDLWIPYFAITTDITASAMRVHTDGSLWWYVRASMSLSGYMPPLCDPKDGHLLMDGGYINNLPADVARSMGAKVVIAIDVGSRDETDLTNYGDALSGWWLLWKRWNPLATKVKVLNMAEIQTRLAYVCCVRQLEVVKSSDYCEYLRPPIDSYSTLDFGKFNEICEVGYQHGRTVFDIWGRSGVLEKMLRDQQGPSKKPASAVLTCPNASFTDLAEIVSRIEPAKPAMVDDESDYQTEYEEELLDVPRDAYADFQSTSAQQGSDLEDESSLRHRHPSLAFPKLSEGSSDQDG
Protocol: as §1, §2, §3, §4, §5, §6, §7, §8, §9

PNPLA8 = molecular target: T3, PNPLA8 (Homo sapiens, UniProt Q9NP80); details: NG-497 100 µM, substrate PA
T3 construct: made in house; host or cells: Expi293 cells, lysate
T3 sequence (Q9NP80 whole entry): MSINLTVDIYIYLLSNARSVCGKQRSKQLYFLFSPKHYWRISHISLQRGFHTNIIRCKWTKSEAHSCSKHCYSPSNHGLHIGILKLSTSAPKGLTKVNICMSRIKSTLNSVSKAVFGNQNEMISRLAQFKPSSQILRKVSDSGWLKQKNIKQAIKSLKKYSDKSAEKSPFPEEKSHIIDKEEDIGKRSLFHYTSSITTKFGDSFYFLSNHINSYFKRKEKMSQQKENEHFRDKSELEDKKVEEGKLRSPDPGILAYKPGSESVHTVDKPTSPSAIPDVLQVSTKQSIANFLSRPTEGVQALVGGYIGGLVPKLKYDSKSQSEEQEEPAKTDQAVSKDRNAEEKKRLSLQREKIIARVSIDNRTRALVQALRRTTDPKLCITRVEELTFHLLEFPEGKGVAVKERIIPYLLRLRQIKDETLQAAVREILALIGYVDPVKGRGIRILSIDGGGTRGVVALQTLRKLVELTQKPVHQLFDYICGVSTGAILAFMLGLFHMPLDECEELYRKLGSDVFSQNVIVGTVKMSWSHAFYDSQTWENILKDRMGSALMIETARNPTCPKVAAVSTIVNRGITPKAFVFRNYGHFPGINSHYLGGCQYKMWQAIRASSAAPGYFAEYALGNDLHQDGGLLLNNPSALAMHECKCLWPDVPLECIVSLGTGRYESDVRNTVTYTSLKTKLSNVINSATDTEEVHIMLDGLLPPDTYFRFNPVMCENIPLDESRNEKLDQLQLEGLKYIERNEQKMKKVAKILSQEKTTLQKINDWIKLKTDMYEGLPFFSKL
Protocol: as §1, §2, §3, §4, §5, §6, §7, §8, §9

PNPLA9 = molecular target: T4, PNPLA9 (Homo sapiens, UniProt O60733); details: NG-497 100 µM, substrate PG
T4 construct: made in house; host or cells: Expi293 cells, lysate
T4 sequence (O60733 whole entry): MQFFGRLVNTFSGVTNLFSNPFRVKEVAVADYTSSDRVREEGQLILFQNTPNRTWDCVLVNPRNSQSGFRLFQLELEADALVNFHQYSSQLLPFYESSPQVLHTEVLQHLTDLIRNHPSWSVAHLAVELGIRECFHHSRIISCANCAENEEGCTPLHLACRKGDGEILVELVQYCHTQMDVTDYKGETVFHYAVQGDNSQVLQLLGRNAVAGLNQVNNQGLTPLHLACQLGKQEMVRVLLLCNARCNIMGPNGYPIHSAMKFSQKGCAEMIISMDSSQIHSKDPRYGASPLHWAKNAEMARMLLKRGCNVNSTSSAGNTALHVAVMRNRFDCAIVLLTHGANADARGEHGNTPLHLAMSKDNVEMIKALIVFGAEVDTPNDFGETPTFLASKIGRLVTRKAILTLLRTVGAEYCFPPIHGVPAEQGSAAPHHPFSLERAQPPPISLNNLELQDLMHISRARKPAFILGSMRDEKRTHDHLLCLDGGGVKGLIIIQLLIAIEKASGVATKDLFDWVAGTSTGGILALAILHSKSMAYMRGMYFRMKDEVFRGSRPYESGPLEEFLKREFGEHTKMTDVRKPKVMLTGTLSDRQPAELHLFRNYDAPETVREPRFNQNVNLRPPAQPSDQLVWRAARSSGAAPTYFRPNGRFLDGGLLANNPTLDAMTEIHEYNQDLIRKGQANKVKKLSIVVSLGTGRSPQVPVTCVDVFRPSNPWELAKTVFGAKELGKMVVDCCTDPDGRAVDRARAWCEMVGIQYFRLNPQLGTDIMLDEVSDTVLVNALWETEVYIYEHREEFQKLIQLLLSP
Protocol: as §1, §2, §3, §4, §5, §6, §7, §8, §9

T1 sequence (Q8IY17 whole entry): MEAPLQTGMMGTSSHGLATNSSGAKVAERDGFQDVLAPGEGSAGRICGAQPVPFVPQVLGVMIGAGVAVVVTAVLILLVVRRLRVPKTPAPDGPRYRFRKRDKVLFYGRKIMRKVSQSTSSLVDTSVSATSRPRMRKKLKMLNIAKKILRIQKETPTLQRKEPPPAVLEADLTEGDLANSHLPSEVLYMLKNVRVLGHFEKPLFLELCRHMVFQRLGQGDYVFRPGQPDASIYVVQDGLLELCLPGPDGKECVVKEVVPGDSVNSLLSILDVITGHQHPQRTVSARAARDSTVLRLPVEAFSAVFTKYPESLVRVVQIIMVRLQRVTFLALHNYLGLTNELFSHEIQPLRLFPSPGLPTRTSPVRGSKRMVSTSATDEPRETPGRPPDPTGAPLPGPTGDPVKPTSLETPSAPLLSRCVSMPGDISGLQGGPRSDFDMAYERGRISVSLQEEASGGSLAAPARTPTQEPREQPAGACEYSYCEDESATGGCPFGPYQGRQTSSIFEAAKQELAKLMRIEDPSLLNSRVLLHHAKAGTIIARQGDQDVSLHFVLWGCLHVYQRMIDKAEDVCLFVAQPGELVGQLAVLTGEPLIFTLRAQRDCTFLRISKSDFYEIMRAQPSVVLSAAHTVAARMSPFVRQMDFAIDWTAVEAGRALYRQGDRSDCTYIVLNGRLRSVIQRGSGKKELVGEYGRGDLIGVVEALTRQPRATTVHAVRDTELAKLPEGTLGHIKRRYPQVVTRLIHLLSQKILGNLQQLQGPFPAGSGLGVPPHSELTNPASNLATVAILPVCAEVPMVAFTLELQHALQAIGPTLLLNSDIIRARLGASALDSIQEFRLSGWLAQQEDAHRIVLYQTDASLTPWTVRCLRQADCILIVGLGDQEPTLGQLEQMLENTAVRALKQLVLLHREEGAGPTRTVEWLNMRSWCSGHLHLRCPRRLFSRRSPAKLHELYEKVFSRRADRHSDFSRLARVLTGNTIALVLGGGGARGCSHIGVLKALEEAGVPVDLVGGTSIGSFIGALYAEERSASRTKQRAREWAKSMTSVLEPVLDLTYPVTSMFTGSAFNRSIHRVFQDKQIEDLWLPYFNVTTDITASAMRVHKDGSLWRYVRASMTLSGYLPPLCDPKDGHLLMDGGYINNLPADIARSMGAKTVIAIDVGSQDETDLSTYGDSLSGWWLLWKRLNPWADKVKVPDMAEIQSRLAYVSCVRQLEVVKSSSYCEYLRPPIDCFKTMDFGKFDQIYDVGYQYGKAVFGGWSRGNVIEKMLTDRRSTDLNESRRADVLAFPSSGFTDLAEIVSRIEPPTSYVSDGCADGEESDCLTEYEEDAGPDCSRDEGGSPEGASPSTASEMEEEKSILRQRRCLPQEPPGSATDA

CCOc1ccc(-c2cc(OC)cc(C(=O)OC(C)C)n2)cc1 [NG-497]
did not observe inhibition: inhibition of PNPLA6 (PNPLA6) | inhibition of PNPLA7 (PNPLA7) | inhibition of PNPLA8 (PNPLA8) | inhibition of PNPLA9 (PNPLA9)
